≈ marks a conversion by molar mass, not a printed value.

The source of these data is patent publication EP2249889B1, “CRYSTALLINE SURGICAL IMPLANT COMPOSITE MATERIALS AND KITS AND METHODS OF MANUFACTURE” (Sandvik Intellectual Property AB, priority 2008, dated 2009).

In data set [1] the test system is Staphylococcus aureus strain Cowan I. Description: Inhibition zones of bacterial growth in bacteria agar around antibiotic loaded HA coated plates. The class given is cell-based. To be noted: loading 15 minutes to 24 hours; release in PBS 15 minutes to 24 hours before agar; incubated 37°C 18 hours. The method, then:
The incorporation of antibiotics was preformed by soaking the HA coated plates in 10 ml PBS containing 50 µg of either Tobramycin, Cephalotin, Amoxicillin or Gentamicin sulfate (Sigma-Aldrich Company Ltd.). The drug loading was performed at room temperature in 50 ml conical test tubes for four different soaking times between 15 minutes and 24 hours.
After incorporation of antibiotics, the plates were immediately transferred to new tubes filled with 40 ml of PBS preheated to 37°C in order to let the incorporated drug leak out for various time intervals before monitoring the antibacterial effect of the drug remaining in the coatings. After either 15 minutes, 60 minutes or 24 hours, the plates were removed and dried at room temperature for further analysis of the remaining antibacterial effect in the Staphylococcus aureus agar described below.
A Mueller-Hinton broth (Merck) containing 0.8% Agar was prepared by dissolving the powder in de-ionized water and sterilized by autoclaving at 121°C for 20 minutes. The broth was then tempered to 40°C in a water bath. Staphylococcus aureus strain Cowan I (NCTC 8530, National Collection of Type Cultures, London, UK) in a PBS suspension was added directly to the broth giving it a final optical density at 600 nm of 0.005 (corresponding to approximately 5x10^6 cfu/ml). The mixture was mixed to homogenously distribute the bacteria in the substrate and then transferred to Petri dishes. The dishes were filled to a depth of 10 mm (50 ml) with the bacterial broth. As the agar stiffened at room temperature, the titanium plates were stuck down in the agar at a right angle to the surface, having both sides in contact with the bacterial substrate. The Petri dishes were then incubated at 37°C for 18 hours. A HA coated reference plate without any antibiotics was also tested. The inhibition zones of bacterial growth formed around the plates were photographed by an imaging instrument (Geldoc 2000, Bio-Rad).

The subject of a further data set is S aureus Cowan I. Put plainly: E-test antimicrobial susceptibility test (MIC). Format: cell-based. The following applies: Staphylococcus aureus, inhibiting bacteria in 1 ml broth. The method, then:
(§1) The drug release rate was analyzed using UV spectroscopy (Shimadzu 1650PC, Shimadzu Corp.) by immersing plates that had been soaked in Amoxicillin and Cephalothin for 15 minutes, 1 hour and 24 hours in 8.2 ml of either water or PBS at room temperature. The release was measured (using a wavelength Of 230 nm for Amoxicillin and 239 nm for Cephalothin) in water for 1 hour to investigate the initial release and then in PBS for 22 hours to investigate the slow release after the initial burst. The liquid was circulated through a cell in which the drug concentration was detected. After the release in PBS, the HA coatings soaked for 24 hours in the antibiotic solutions were dissolved by lowering the pH of the PBS to 2 by addition of hydrochloric acid. This was done to release and measure the amount of remaining drugs still present in the coatings after 22 hours of release. To relate the antibiotics concentration released to the antibacterial effect, antimicrobial susceptibility tests (E-test, AB Biodisk, Sweden) for Amoxicillin and Cephalothin was performed on strain S aureus Cowan I and on Staphylococcus epidermidis Kx293A1 (Department of Microbiology, Swedish University of Agricultural Sciences).
(§2) Table 1 presents the concentration of Amoxicillin and Cephalothin that has to be present to ensure killing of S. aureus and S. epidermidis, as divulged from the antimicrobial susceptibility tests. Table 1: Result from E-test for antimicrobial susceptibility testing, determining the minimum inhibitory concentration (MIC) of antimicrobial agents against microorganisms (inhibiting bacteria in 1 ml broth).

The subject of data set [2] is Staphylococcus epidermidis Kx293A1. Description: E-test antimicrobial susceptibility test (MIC). The class given is cell-based. The following applies: inhibiting bacteria in 1 ml broth. The procedure: as §1, §2
The format of data set [3] is physicochemical. To be noted: for anticipated release time: assuming constant release rate until coatings are emptied, including the 22 hours of release before hydrochloric acid treatment; for drug release rate: from HA coating in PBS at room temperature, between 2 and 22 hours after start; for duration of initial rapid drug release (burst): from HA coatings, loading times 15 minutes, 1 hour, 24 hours. The method, then:
The drug loading was performed at room temperature in 50 ml conical test tubes for four different soaking times between 15 minutes and 24 hours. […] The liquid was circulated through a cell in which the drug concentration was detected. After the release in PBS, the HA coatings soaked for 24 hours in the antibiotic solutions were dissolved by lowering the pH of the PBS to 2 by addition of hydrochloric acid. This was done to release and measure the amount of remaining drugs still present in the coatings after 22 hours of release. To relate the antibiotics concentration released to the antibacterial effect, antimicrobial susceptibility tests (E-test, AB Biodisk, Sweden) for Amoxicillin and Cephalothin was performed on strain S aureus Cowan I and on Staphylococcus epidermidis Kx293A1 (Department of Microbiology, Swedish University of Agricultural Sciences).

A short description of data set [4]: Release and content of Amoxicillin from HA coatings loaded with pamidronate and Amoxicillin (methods of Examples 8 and 9). The class given is physicochemical.

`NC[C@H]1O[C@H](O[C@H]2[C@H](O)[C@@H](O[C@H]3O[C@H](CO)[C@@H](O)[C@H](N)[C@H]3O)[C@H](N)C[C@@H]2N)[C@H](N)C[C@@H]1O` [Tobramycin]: the “antibacterial effect (inhibition zone, clear agar closest to the plates)” value in data set [1] is on record as “the antibiotic effect was preserved”.
As for Gentamicin sulfate, the “antibacterial effect (inhibition zone, clear agar closest to the plates)” value in data set [1] was “the antibiotic effect was preserved”.
Usually MIC stands for the lowest concentration found to suppress growth. Read a high MIC as weaker potency. As for `CC(=O)OCC1=C(C(=O)O)N2C(=O)[C@@H](NC(=O)Cc3cccs3)[C@H]2SC1` [Cephalothin], in data set [1], the “antibacterial effect (inhibition zone, clear agar closest to the plates)” value is recorded as “the antibiotic effect was preserved”. The compound further returned a minimum inhibitory concentration (MIC) in the data set with S aureus Cowan I of 0.064 µg/mL (≈ 0.161 µM). This compound came in with an MIC in data set [2] of 0.064 µg/mL (≈ 0.161 µM). In data set [3], the anticipated release time came to 63 h, the drug release rate is 0.22±0.06 µg/h·cm^2 and the “duration of initial rapid drug release (burst)” value is “less than 10 minutes”. Also, the “amount of antibiotics remaining in the coating after 22 hours of release” value in data set [3] (buffer) is on record as ~ 18 µg.
`CC1(C)S[C@@H]2[C@H](NC(=O)[C@H](N)c3ccc(O)cc3)C(=O)N2[C@H]1C(=O)O` [Amoxicillin]: the “antibacterial effect (inhibition zone, clear agar closest to the plates)” value in data set [1] was “the antibiotic effect was preserved”. The MIC against S aureus Cowan I came out at 0.064 µg/mL (≈ 0.175 µM). Besides, in data set [2], inhibition of growth (MIC) required 0.19 µg/mL (≈ 0.52 µM). Moreover, in data set [3], the anticipated release time is 27 h, the drug release rate was 0.42±0.10 µg/h·cm^2 and the “duration of initial rapid drug release (burst)” value is reported as “less than 10 minutes”. Besides, the “time for which a therapeutically significant dose of amoxicillin was released” value in data set [4] (Example 10: co-loading, 10 ml PBS, 6 mg pamidronate disodium salt hydrate, 100 µg Amoxicillin, 50 °C, 25 minutes, rinsed 5 minutes in PBS) amounted to 7 days. The “time for which a therapeutically significant dose of amoxicillin was released” value in data set [4] (Example 11: sequential loading, 7 mg pamidronate 40°C 12 minutes, then 70 µg Amoxicillin 40°C 15 minutes, soaked in PBS 7 minutes) was 6 days.
